Laboratory results from ChEMBL document CHEMBL1150588, “New nitrogenous eudesmane-type compounds isolated from the Caribbean sponge Axinyssa ambrosia” (J Nat Prod, 2002).

Key:
Madracis mirabilis [1] = assay: Toxicity against Madracis mirabilis polyps assessed as mortality at 10 ug/ml after 2 hrs; settings: in vivo
A549 = assay: Cytotoxicity against human A549 cells; format: functional, cell-based
HT-29 = assay: Cytotoxicity against human HT-29 cells; format: functional, cell-based
P388 = assay: Cytotoxicity against mouse P388 cells; format: functional, cell-based
Madracis mirabilis [2] = assay: Toxicity against Madracis mirabilis polyps assessed as mortality at 7.75 ug/ml after 2 hrs; settings: in vivo
[3] = Toxicity against Madracis mirabilis polyps assessed as mortality after 2 hrs; format: organism-based; settings: in vivo; read-out: LD50
Madracis mirabilis [4] = assay: Toxicity against Madracis mirabilis assessed as retracted polyps at 10 ug/ml after 24 hrs; settings: in vivo
Madracis mirabilis [5] = assay: Toxicity against Madracis mirabilis assessed as retraction recovery at 10 ug/ml after 48 hrs; settings: in vivo

Structure (SMILES)	Activity (Madracis mirabilis [1])	IC50 (A549) [µg/mL]	IC50 (HT-29) [µg/mL]	IC50 (P388) [µg/mL]	Activity (Madracis mirabilis [2])	LC50 at 2 h [3] [µg/mL]	Activity (Madracis mirabilis [4])	Activity (Madracis mirabilis [5]) [%]
C=C(C)[C@H]1CC[C@@]2(C)CCC[C@@](C)(N)[C@@H]2C1.Cl (relative stereo)	Toxic	2	2	2	Non-toxic	9.4		
C=C(C)[C@H]1CC[C@@]2(C)CCC[C@@](C)(N)[C@@H]2C1 (relative stereo)							Active	40
